Measured values reported in publication PMC7353089, “The Hepatotoxicity of Alantolactone and Germacrone: Their Influence on Cholesterol and Lipid Metabolism in Differentiated HepaRG Cells” (Nutrients, 2020).
Entries after “also recorded” stand apart in the source; their conditions may differ. Like-named read-outs stand apart in the source and are kept apart here.

Legend:
[1] = system: proliferative liver (HepG2, HuH-7, LO2), breast (MCF7, MDA-MB-231), and glioblastoma cancer cell lines; conditions: after 12 to 24 h; read-out: IC50 values in proliferative cancer cell lines (approximate); cited from earlier work
GPAM mRNA = assay: RT-qPCR mRNA expression in dHepaRG cells; format: cell-based, human; conditions: single exposure, 6, 12 and 24 h
Method: (§2) Three concentrations were selected for each compound (non-toxic, non-toxic/slightly toxic and toxic).
(§3) All treatments were performed in triplicates and every experiment was performed three times. The cells were washed twice with ice cold phosphate-buffered saline (PBS), scrapped and stored at −80 °C until use. Total RNA from cells was isolated using TriReagent according to the manufacturer’s instructions (Biotech, Prague, Czech Republic). The purified RNA was dissolved in 40 µL of diethyl pyrocarbonate (DEPC)-treated water (0.01% DEPC in HPLC water, autoclaved) and stored at −80 °C. The measurement of absorbance at 260 and 280 nm using the NanoDrop ND-1000 UV–VIS Spectrophotometer (Thermo Fisher Scientific, Pardubice, Czech Republic) was used to determine RNA yields and purity. Subsequently, the RNA (4 µg) was treated with 2 U of DNase I (New England Biolabs, Ipswich, MA, USA) in a final volume of 30 µL for 25 min at 37 °C, 1.5 µL of 0.1 M ethylenediaminetetraacetic acid was added and the DNAse was inactivated by heat (5 min at 75 °C). […] Fluorescence data were recorded at the end of each amplification step. Relative expression levels of the target genes were calculated as fold changes in triplicates for each group using the 2^−ΔΔCt method [28] by normalization to the geometric mean of the Ct values of Sdha and Ywhaz, which were used as reference genes.

ICAM-1 mRNA = assay: RT-qPCR mRNA expression in dHepaRG cells; format: cell-based, human; conditions: the highest concentration
Method: (§4) Three concentrations were selected for each compound (non-toxic, non-toxic/slightly toxic and toxic). […] The expression changes of genes and proteins related to cholesterol metabolism were measured in both single and multiple exposure experiments.
(§5) All treatments were performed in triplicates and every experiment was performed three times. The cells were washed twice with ice cold phosphate-buffered saline (PBS), scrapped and stored at −80 °C until use. Total RNA from cells was isolated using TriReagent according to the manufacturer’s instructions (Biotech, Prague, Czech Republic). The purified RNA was dissolved in 40 µL of diethyl pyrocarbonate (DEPC)-treated water (0.01% DEPC in HPLC water, autoclaved) and stored at −80 °C. The measurement of absorbance at 260 and 280 nm using the NanoDrop ND-1000 UV–VIS Spectrophotometer (Thermo Fisher Scientific, Pardubice, Czech Republic) was used to determine RNA yields and purity. […] Fluorescence data were recorded at the end of each amplification step. Relative expression levels of the target genes were calculated as fold changes in triplicates for each group using the 2^−ΔΔCt method [28] by normalization to the geometric mean of the Ct values of Sdha and Ywhaz, which were used as reference genes.

FASN mRNA = assay: RT-qPCR mRNA expression in dHepaRG cells; format: cell-based, human; conditions: single exposure, 6, 12 and 24 h
Method: (§6) Three concentrations were selected for each compound (non-toxic, non-toxic/slightly toxic and toxic). The cholesterol level of the dHepaRG cells was measured after a multiple exposure of the highest non-toxic concentrations of tested compounds. […] The expression changes of genes and proteins related to cholesterol metabolism were measured in both single and multiple exposure experiments.
as §5

MCF-7 = conditions: read-out: Previously Reported IC50 Values (24 h), cited from earlier work
SREBP-1c mRNA = assay: RT-qPCR mRNA expression in dHepaRG cells; format: cell-based, human
Method: as §2, §3

G6PC mRNA = assay: RT-qPCR mRNA expression in dHepaRG cells; format: cell-based, human; conditions: single exposure, also at other than toxic concentrations
Method: as §4, §5

dHepaRG cells [2] = assay: ROS production (H2DCFDA probe); format: cell-based, human; conditions: for lowest measured concentration leading to oxidative stress: ROS production; for ROS production: various concentrations, 1, 6, 12 and 24 h, H2-DCFDA probe
Method: The production of reactive oxygen species (ROS) was measured using 2′,7′-dichlorofluorescin diacetate probe (H2DCFDA). The cells were preincubated with 10 µM H2DCFDA for 30 min in the dark. Afterwards, the cells were washed with PBS and sesquiterpenes were added to a Hank’s Balanced Salt Solution (HBSS) buffer. Fluorescence was measured after 1, 6, 12, and 24 h with excitation and emission wavelengths of 490 nm and 530 nm, respectively, using the Tecan Infinite M200. Hydrogen peroxide (300 µM) served as a positive control.

dHepaRG cells [3] = assay: Lactate dehydrogenase (LDH) leakage; format: cell-based, human; conditions: dHepaRG cell viability, read-out: IC50 ± SD, LDH
Method: Cryopreserved HepaRG cells were obtained from Biopredic International (Rennes, France). Undifferentiated cells were seeded according to the supplier protocols in 96-well plates for the viability assays, and in 6-well plates for the mRNA and western blot measurements. The cells were cultured for two weeks in Williams E Medium with GlutaMAX™ (Invitrogen, Paisley, UK) supplemented with 10% fetal bovine serum, 2 mM glutamine, 100 IU/mL penicillin, 100 μg/mL streptomycin, 5 μg/mL insulin, and 50 μM hydrocortisone hemisuccinate. The cells were afterwards cultured for another 2-week period in the same medium supplemented with 1.7% DMSO. The medium was replaced every 2–3 days.
Lactate dehydrogenase (LDH) leakage was measured using the Invitrogen™ CyQUANT™ LDH Cytotoxicity Assay Kit according to the manufacturer guidelines using 96-well plates. After 24 and 72-h exposure, the culture medium was collected and diluted ten times by distilled water. Fifty µL of reaction mixture was added to each sample well and mixed. After 30 min of incubation at room temperature, 50 µL of stop solution was added to each well. To determine LDH activity, 680-nm absorbance value (background) was subtracted from the 490-nm absorbance before calculation of % cytotoxicity. Cell lysate was set as 100% of the LDH leakage.

RIP1 = assay: Western blot protein level in dHepaRG cells; format: cell-based, human
Method: (§1) All the treatments were performed in triplicates. Protein concentration was measured using the bicinchoninic acid (BCA) protein assay (Sigma Aldrich, Prague, Czech Republic) according to the manufacturer’s instructions. The proteins were loaded onto a 10% sodium dodecyl sulfate (SDS; w/v)–polyacrylamide gel (with 4% stacking gel) and separated by SDS-PAGE electrophoresis. The proteins were transferred onto a nitrocellulose membrane using wet blot (100 V, 90 min). The membrane blocking was performed in a 5% non-fat dry milk/TRIS-buffered saline-Tween-20 (TBS-T) solution at room temperature for 2 h. Incubation with primary antibodies was accomplished overnight at 10 °C. β-actin was used as housekeeping protein (the list of primary antibodies in Table S2). Afterwards, the membrane was washed with 0.05% TBS-T solution for 6 × 5 min, incubated with respective secondary antibodies conjugated with horseradish peroxidase (bovine anti-rabbit (sc2370, Santa Cruz Biotechnology, Santa Cruz, CA, USA) at room temperature for 1.5 h, and rinsed with TBS-T solution for 6 × 5 min. Visualization of protein bands was carried out using a chemiluminescence kit (GE Healthcare, Buckinghamshire, UK).

NF-κB = assay: Western blot protein level in dHepaRG cells; format: cell-based, human
Method: as §1

SREBP-2 (F) = assay: Western blot protein level in dHepaRG cells; format: cell-based, human; conditions: single exposure
Method: as §1

STAT3 = assay: Western blot protein level in dHepaRG cells; format: cell-based, human; conditions: highest tested concentration (equal to IC50)
Method: as §1

ICAM-1 = assay: Western blot protein level in dHepaRG cells; format: cell-based, human
Method: as §1

p-STAT3(Y705) = assay: Western blot protein level in dHepaRG cells; format: cell-based, human; conditions: for phosphorylated p-STAT3(Y705) protein amount: 12-h exposure
Method: as §1

HMGCR = assay: Western blot protein level in dHepaRG cells; format: cell-based, human
Method: as §1

PLIN2 mRNA = assay: RT-qPCR mRNA expression in dHepaRG cells; format: cell-based, human; conditions: single exposure, the highest concentrations
Method: as §6, §5

U87 = conditions: U87, 24 h, read-out: Previously Reported IC50 Values (24 h), cited from earlier work
ACACB mRNA = assay: RT-qPCR mRNA expression in dHepaRG cells; format: cell-based, human; conditions: single exposure, 6, 12 and 24 h
Method: as §2, §3

PPARα mRNA = assay: RT-qPCR mRNA expression in dHepaRG cells; format: cell-based, human
Method: as §2, §3

[4] = single exposure, 6, 12 and 24 h
[5] = single exposure, toxic concentration after 24 h
[6] = the higher concentrations after 12 and 24-h exposure

For `C=C1C(=O)O[C@@H]2C[C@@]3(C)CCC[C@H](C)C3=C[C@H]12` [ATL, alantolactone], the IC50 [1] is listed as 10 to 30 µM, the “GPAM mRNA level” value (GPAM mRNA) is listed as “significantly decreased” and the “ICAM-1 mRNA amount” value (ICAM-1 mRNA; 12-h and 24-h exposure) is listed as “induced”. The “FASN mRNA level” value (FASN mRNA) was “significantly decreased”, the IC50 (MCF-7; MCF-7, 24 h) was 36 µM and the “SREBP-1c mRNA” value (SREBP-1c mRNA; [4]) was “dysregulated”. The “G6PC mRNA expression” value (G6PC mRNA) was “dysregulated”, the “lowest measured concentration leading to oxidative stress” value (dHepaRG cells [2]) was 20 µM and the ROS production (dHepaRG cells [2]) was “significant time- and concentration-dependent enhancement of ROS production”. For the same compound, the IC50 (dHepaRG cells [3]; 24 h single exposure) was 61.1 ± 1.8 µM, the IC50 (dHepaRG cells [3]; 72 h single exposure) was 57.8 ± 2 µM and the RIP1 protein expression (RIP1; 12-h exposure) was “decreased level”. The RIP1 protein expression (RIP1; 24-h exposure, highest concentration) was “decreased”, the NF-κB protein level (NF-κB; 24-h exposure, the highest concentration) was “significant decrease” and the “functional SREBP-2 (F) protein level” value (SREBP-2 (F); the highest concentration) was “significantly decreased”. For the same compound, the “total STAT3 protein level” value (STAT3) was “decrease”, the ICAM-1 protein amount (ICAM-1; all concentrations after 12-h exposure) was “significantly decreased” and the “phosphorylated p-STAT3(Y705) protein amount” value (p-STAT3(Y705); all concentrations tested) was “decreased; also recorded: inhibition”. For the same compound, the HMGCR protein amount (HMGCR; single exposure, after 12 and 24 h) was “decrease”, the HMGCR protein level (HMGCR; single exposure, the higher concentrations after 12 and 24-h exposure) was “decrease” and the “PLIN2 mRNA” value (PLIN2 mRNA) was “induced”. The IC50 (U87; ref 10) was 20 µM, the IC50 (U87; ref 34) was 33 µM and the “ACACB mRNA level” value (ACACB mRNA) was “significantly decreased”. For the same compound, the “PPARα mRNA expression” value (PPARα mRNA; [5]) was “inhibited”.
For `CC(C)=C1C/C=C(\C)CC/C=C(\C)CC1=O` [GER, germacrone], the IC50 [1] is listed as 150 to 250 µM, the “GPAM mRNA level” value (GPAM mRNA) is listed as “significantly decreased” and the “ICAM-1 mRNA amount” value (ICAM-1 mRNA; 6-h and 12-h exposure) is listed as “induced”. For the same compound, the “FASN mRNA level” value (FASN mRNA) was “significantly decreased”, the IC50 (MCF-7; MCF7, 24 h, ref 11) was 195 µM and the IC50 (MCF-7; MCF7, 24 h, ref 37) was greater than 200 µM. The “SREBP-1c mRNA” value (SREBP-1c mRNA; [5]) was “inhibited”, the “G6PC mRNA expression” value (G6PC mRNA) was “dysregulated” and the “lowest measured concentration leading to oxidative stress” value (dHepaRG cells [2]) was 100 µM. For the same compound, the ROS production (dHepaRG cells [2]) was “significant time- and concentration-dependent enhancement of ROS production”, the IC50 (dHepaRG cells [3]; 24 h single exposure) was 244 ± 15.5 µM and the IC50 (dHepaRG cells [3]; 72 h single exposure) was 234 ± 13.4 µM. For the same compound, the RIP1 protein expression (RIP1; 12-h exposure) was “decreased level”, the NF-κB protein level (NF-κB; 12-h exposure) was “decreased level” and the “functional SREBP-2 (F) protein level” value (SREBP-2 (F); 12-h exposure) was “increase”. The “functional SREBP-2 (F) protein level” value (SREBP-2 (F); 24-h exposure) was “no change in protein level”, the “total STAT3 protein level” value (STAT3) was “decrease” and the ICAM-1 protein amount (ICAM-1; [6]) was “significantly decreased”. The “phosphorylated p-STAT3(Y705) protein amount” value (p-STAT3(Y705); both higher concentrations) was “decreased”, the “p-STAT3 (Y705) phosphorylation” value (p-STAT3(Y705); [6]) was “inhibition” and the HMGCR protein level (HMGCR; multiple exposure: four applications every 24 h, analyzed 12 h after the last, 30 μM ATL, 100 μM GER, 20 μM LOV) was “slight decrease”. The HMGCR protein amount (HMGCR; single exposure, only after 12-h exposure) was “decrease”, the HMGCR protein level (HMGCR; single exposure, the highest concentration after 12-h exposure) was “decrease” and the “PLIN2 mRNA” value (PLIN2 mRNA) was “induced”. For the same compound, the IC50 (U87; ref 36) was 175 µM, the “ACACB mRNA level” value (ACACB mRNA) was “significantly decreased” and the “PPARα mRNA expression” value (PPARα mRNA; [4]) was “no effect”.
